# Laboratory results taken from patent US5846944A (priority 1997, dated 1998).
# How the values were obtained:
# [1] = system: Atherosclerotic plaques, New Zealand White rabbits; assay: Development of atherosclerotic plaques in rabbits on experimental diets (Example 1); assay type: in vivo; conditions: control diet without cholesterol; flaxseed 15% of diet or SDG 15 mg/kg oral; 2 months
# Experimental: (§1) Experiments were carried out on six to eight week old female New Zealand white rabbits weighing between 1.8 and 2.0 kg. All procedures relating to the care and welfare of test animals within this experimental protocol conformed to a Standard Operating Procedure (SOP) approved by the Council on Animal Care, University of Saskatchewan, Saskatoon, Saskatchewan, Canada.
# (§2) Blood samples for measurement of triglycerides (TG), total cholesterol (TC), low density lipoprotein cholesterol (LDL-C), very-low density lipoprotein cholesterol (VLDL-C), and high density lipoprotein cholesterol (HDL-C) were taken before the animals were assigned to the experimental diet (T=0), and after 1 (T=1) and 2 months (T=2) on the experimental diet. The rabbits were sacrificed under pentabarbital anesthesia at the end of 2 months. The aorta was removed for the assessment of atherosclerotic plaques.
# (§3) Much has been made of the importance of the composition of certain dietary fats toward health, particularly in relation to the degree of saturation of the fatty acid composition of the triglycerides.
# [2] = system: New Zealand white rabbits; assay: Serum lipids (TC, LDL-C, VLDL-C, HDL-C, triglycerides) in rabbits on experimental diets (Example 1); assay type: in vivo
# Experimental: as §1
# Blood samples for measurement of triglycerides (TG), total cholesterol (TC), low density lipoprotein cholesterol (LDL-C), very-low density lipoprotein cholesterol (VLDL-C), and high density lipoprotein cholesterol (HDL-C) were taken before the animals were assigned to the experimental diet (T=0), and after 1 (T=1) and 2 months (T=2) on the experimental diet. The rabbits were sacrificed under pentabarbital anesthesia at the end of 2 months. The aorta was removed for the assessment of atherosclerotic plaques. […]
# [3] = Body weight of hypercholesterolemic rabbits (Example 1); assay type: in vivo, New Zealand white rabbits
# Experimental: as §1, §2, §3
# [4] = system: New Zealand white rabbits; assay: Serum lipids in rabbits (Example 4); assay type: in vivo; conditions: + 1% cholesterol
# Experimental: as §1, §2
# [5] = Body weight of hypercholesterolemic rabbits (Example 4); assay type: in vivo, New Zealand White rabbits; conditions: + 1% cholesterol
# Experimental: as §1, §2
# [6] = system: hypercholesterolemic atherosclerosis, New Zealand White rabbits; assay: Comparison with other compounds: hypercholesterolemic atherosclerosis and total cholesterol in rabbits; assay type: in vivo; conditions: compared with Vitamin E
# Excerpt: The effect of Probucol on reducing atherosclerosis varied between 15-45%, depending upon the extent of the hypercholesterolemia.
# The mechanism of action for Vitamin E is now generally accepted as preventing the development of hypercholesterolemic atherosclerosis through its antioxidant activity and its ability to scavenge free radicals in the bloodstream.
# [7] = system: endotoxic shock, anesthetized dogs; assay: Endotoxic-shock-induced changes in cardiovascular function, contractility, MDA and antioxidant reserve in anesthetized dogs (Example 2); assay type: in vivo; conditions: SDG 10 mg/kg i.v. 15 min prior to endotoxin 5 mg/kg i.v.
# Experimental: The dogs were divided into three groups. Group I, (sham 3 hours, n=5). Group II, (ET, n=9), these dogs received endotoxin (5 mg/kg, intravenously). […] Mean aortic blood pressure (mAo), cardiac index (CI) a measure of cardiac function, and cardiac contractility (dp/dt at CPIP/PAW) were measured before (0 min) and at 30 min, 60 min, 90 min, 120 min and 180 min after endotoxin administration. At the end of 3 hours of experiment heart was removed for measurement of MDA and antioxidant reserve. Cardiac function and contractility were measured. Left ventricular MDA (LV-MDA) and left ventricular chemiluminescence (LV-CL) a measure of antioxidant reserve were also estimated.
# [8] = system: diabetes mellitus, BBdp rats; assay: Spontaneously developing IDDM in diabetic prone BB (BBdp) rats (Example 5); assay type: in vivo; conditions: SDG 22 mg/kg daily
# Experimental: Two animal models of IDDM used were: streptozotocin-induced and diabetic prone (dp) BB rats (BBdp). The Zucker diabetic fatty rat (ZDF), an animal model closely resembling human NIDDM, was used for NIDDM.
# BBdp rats develop diabetes melliuts spontaneously. […] Serum malondialdehyde (MDA) a measure of levels of oxygen radicals, and antioxidant reserve [pancreatic-chemiluminescence (Pancreatic-CL)] were assessed in blood and pancreas. Male 35-day old BBdp and age matched nondiabetic prone BE (BBn) rats were obtained from Animal Resources Division, Health Protection Branch (Ottawa, Canada).
# Two rats from BBn and 4 rats from BBdp at the age of 35 days were sacrificed to measure serum glucose and MDA, and pancreatic MDA and antioxidant reserve. […] Diagnosis of diabetes mellitus was established by testing for the presence of glucosuria which was done every altenate day for 120 days or until glucosuria appeared. Once they developed diabetes or at the end of 120 days rats were anesthetized with nembutal sodium. Blood samples were taken to measure serum glucose and MDA, and pancreas were removed to assess pancreatic MDA and antioxidant reserve. None of the BBdp rats tested positive for glucosuria at 5 weeks and at that age the serum glucose in BBn and BBdp rats were 8.75±0.63 and 10.03±0.65 mmoles/L respectively.
# [9] = 0 month, + 1% cholesterol group
# [10] = 0 month, control diet without cholesterol
# [11] = 1 month, + 1% cholesterol, flaxseed 15% or SDG 15 mg/kg oral
# [12] = 1 month, control diet without cholesterol, flaxseed 15% or SDG 15 mg/kg oral
# [13] = 2 months, + 1% cholesterol, flaxseed 15% or SDG 15 mg/kg oral
# [14] = 2 months, control diet without cholesterol, flaxseed 15% or SDG 15 mg/kg oral
# [15] = 0 months, SDG 5 mg/kg or SDG (89% pure) 11.24 mg/kg group
# [16] = 1 month, SDG 5 mg/kg or SDG (89% pure) 11.24 mg/kg, orally daily
# [17] = 2 months, SDG 5 mg/kg or SDG (89% pure) 11.24 mg/kg, orally daily
smiles,measurement,setting,value
"COc1cc(CC(COC2OC(CO)C(O)C(O)C2O)C(COC2OC(CO)C(O)C(O)C2O)Cc2ccc(O)c(OC)c2)ccc1O (stereo not drawn) [SDG, secoisolariciresinol diglucoside]",Atherosclerotic plaques (% of total internal surface area),[1],0 % of total internal surface ar
same,Serum HDL-C levels,[2]; [9],0.62 ± 0.10 mmol/L
same,Serum LDL-C levels,[2]; [9],1.09 ± 0.19 mmol/L
same,Serum Triglyceride levels,[2]; [9],1.21 ± 0.09 mmol/L
same,Serum VLDL-C levels,[2]; [9],0.55 ± 0.04 mmol/L
same,Total serum cholesterol levels,[2]; [9],2.26 ± 0.25 mmol/L
same,Serum HDL-C levels,[2]; [10],0.58 ± 0.09 mmol/L
same,Serum LDL-C levels,[2]; [10],0.34 ± 0.09 mmol/L
same,Serum Triglyceride levels,[2]; [10],1.10 ± 0.13 mmol/L
same,Serum VLDL-C levels,[2]; [10],0.50 ± 0.06 mmol/L
same,Total serum cholesterol levels,[2]; [10],1.42 ± 0.11 mmol/L
same,Serum HDL-C levels,[2]; [11],1.30 ± 0.18 mmol/L
same,Serum LDL-C levels,[2]; [11],66.26 ± 7.23 mmol/L
same,Serum Triglyceride levels,[2]; [11],1.40 ± 0.17 mmol/L
same,Serum VLDL-C levels,[2]; [11],0.64 ± 0.08 mmol/L
same,Total serum cholesterol levels,[2]; [11],68.20 ± 7.41 mmol/L
same,Serum HDL-C levels,[2]; [12],0.60 ± 0.06 mmol/L
same,Serum LDL-C levels,[2]; [12],0.33 ± 0.06 mmol/L
same,Serum Triglyceride levels,[2]; [12],0.63 ± 0.02 mmol/L
same,Serum VLDL-C levels,[2]; [12],0.29 ± 0.01 mmol/L
same,Total serum cholesterol levels,[2]; [12],1.22 ± 0.11 mmol/L
same,Serum HDL-C levels,[2]; [13],1.20 ± 0.48 mmol/L
same,Serum LDL-C levels,[2]; [13],43.25 ± 6.64 mmol/L
same,Serum Triglyceride levels,[2]; [13],1.83 ± 0.35 mmol/L
same,Serum VLDL-C levels,[2]; [13],0.83 ± 0.16 mmol/L
same,Total serum cholesterol levels,[2]; [13],45.18 ± 6.68 mmol/L
same,Serum HDL-C levels,[2]; [14],0.50 ± 0.00 mmol/L
same,Serum LDL-C levels,[2]; [14],0.25 ± 0.04 mmol/L
same,Serum Triglyceride levels,[2]; [14],0.60 ± 0.12 mmol/L
same,Serum VLDL-C levels,[2]; [14],0.27 ± 0.02 mmol/L
same,Total serum cholesterol levels,[2]; [14],1.12 ± 0.10 mmol/L
same,Body weight,[3]; [9],1.25 ± 0.03 kg
same,Body weight,[3]; [10],1.75 ± 0.02 kg
same,Body weight,[3]; [11],1.98 ± 0.08 kg
same,Body weight,[3]; [12],2.34 ± 0.04 kg
same,Body weight,[3]; [13],2.35 ± 0.10 kg
same,Serum HDL-C levels,[4]; [15],0.83 ± 0.08 mmol/L
same,Serum LDL-C levels,[4]; [15],0.89 ± 0.14 mmol/L
same,Serum Triglyceride levels,[4]; [15],1.30 ± 0.19 mmol/L
same,Serum VLDL-C levels,[4]; [15],0.59 ± 0.09 mmol/L
same,Total serum cholesterol levels,[4]; [15],2.31 ± 0.19 mmol/L
same,Serum HDL-C levels,[4]; [16],0.76 ± 0.42 mmol/L
same,Serum LDL-C levels,[4]; [16],75.98 ± 9.04 mmol/L
same,Serum Triglyceride levels,[4]; [16],0.97 ± 0.16 mmol/L
same,Serum VLDL-C levels,[4]; [16],0.44 ± 0.08 mmol/L
same,Total serum cholesterol levels,[4]; [16],77.24 ± 7.22 mmol/L
same,Serum HDL-C levels,[4]; [17],0.48 ± 0.10 mmol/L
same,Serum LDL-C levels,[4]; [17],58.68 ± 9.69 mmol/L
same,Serum Triglyceride levels,[4]; [17],0.87 ± 0.20 mmol/L
same,Serum VLDL-C levels,[4]; [17],0.39 ± 0.09 mmol/L
same,Total serum cholesterol levels,[4]; [17],59.61 ± 9.8 mmol/L
same,Body weight,[5]; [15],1.47 ± 0.02 kg
same,Body weight,[5]; [16],2.45 ± 0.04 kg
same,reduction of hypercholesterolemic atherosclerosis and of total blood cholesterol,[6],accomplishes both
same,"Mean aortic blood pressure (mAo), ET-induced fall",[7],prevented the ET-induced fall in mAO up to 30 min
same,"Left ventricular MDA (LV-MDA), ET-induced increase",[7]; 3 hours,prevented the ET-induced increase in LV-MDA
same,"antioxidant reserve (LV-CL), ET-induced decrease",[7]; 3 hours,prevented the ET-induced decrease in antioxidant reserve
same,rats that developed diabetes,"[8]; orally in drinking water, up to 120 days, untreated BBdp 72.7%",21.4%
same,prevention of the development of diabetes,"[8]; orally in drinking water, vs untreated BBdp",70.55%
same,Pancreatic / serum MDA,"[8]; both nondiabetic and diabetic, vs untreated BBdp",lower in the SDG-treated group in both nondiabetic and diabetic as compared to untreated BBdp rats
same,"serum glucose, rats that developed diabetes",[8]; compared with nondiabetic SDG-treated BBdp,higher than those not developing diabetes in this group
same,onset of diabetes,[8]; rats that developed diabetes,delayed the onset of diabetes in ones that developed diabetes
same,Pancreatic antioxidant reserve (Pancreatic-CL),[8]; untreated BBdp vs control or SDG-treated group,slightly lower in the untreated group as compared to the control or SDG-treated group but were not significant
